Our source for the EC50 and IC50 values is ChEMBL document CHEMBL5316328, “Discovery of AXL Degraders with Improved Potencies in Triple-Negative Breast Cancer (TNBC) Cells” (J Med Chem, 2023).

Test [1] concerns the target von Hippel-Lindau disease tumor suppressor/Tyrosine-protein kinase receptor UFO (Homo sapiens, UniProt P30530+P40337). In words: PROTAC activity at VHL/AXL in human MDA-MB-231 cells assessed as induction of AXL degradation incubated for 24 hrs by immunoblot analysis. It is filed as cell-based. In general terms: A western blot detects proteins with antibodies after separation by electrophoresis.

Another test has as its system MDA-MB-436. Put plainly: Antiproliferative activity against human MDA-MB-436 cells expressing AXL assessed as inhibition of cell growth incubated for 72 hrs by CCK8 assay. It is filed as functional, cell-based. To be noted: MDA-MB-436, 72 h.
In a further test the test system is MDA-MB-231. In words: Antiproliferative activity against human MDA-MB-231 cells expressing AXL assessed as inhibition of cell growth incubated for 72 hrs by CCK8 assay. To be noted: MDA-MB-231, 72 h. The format is functional, cell-based.
A further test deals with MDA-MB-453. In words: Antiproliferative activity against human MDA-MB-453 cells assessed as inhibition of cell growth incubated for 72 hrs by CCK8 assay. It is filed as functional, cell-based. To be noted: MDA-MB-453, 72 h. (In general: Formazan colour is commonly taken as a measure of viable cells.)
Test [2] concerns the target Protein cereblon/Tyrosine-protein kinase receptor UFO (Homo sapiens, UniProt P30530+Q96SW2). In words: PROTAC activity at CRBN/AXL in human MDA-MB-231 cells assessed as induction of AXL degradation incubated for 24 hrs by immunoblot analysis. It is filed as cell-based.

Molecules are shown by their SMILES.

Chain of Protein cereblon/Tyrosine-protein kinase receptor UFO (P30530 whole entry): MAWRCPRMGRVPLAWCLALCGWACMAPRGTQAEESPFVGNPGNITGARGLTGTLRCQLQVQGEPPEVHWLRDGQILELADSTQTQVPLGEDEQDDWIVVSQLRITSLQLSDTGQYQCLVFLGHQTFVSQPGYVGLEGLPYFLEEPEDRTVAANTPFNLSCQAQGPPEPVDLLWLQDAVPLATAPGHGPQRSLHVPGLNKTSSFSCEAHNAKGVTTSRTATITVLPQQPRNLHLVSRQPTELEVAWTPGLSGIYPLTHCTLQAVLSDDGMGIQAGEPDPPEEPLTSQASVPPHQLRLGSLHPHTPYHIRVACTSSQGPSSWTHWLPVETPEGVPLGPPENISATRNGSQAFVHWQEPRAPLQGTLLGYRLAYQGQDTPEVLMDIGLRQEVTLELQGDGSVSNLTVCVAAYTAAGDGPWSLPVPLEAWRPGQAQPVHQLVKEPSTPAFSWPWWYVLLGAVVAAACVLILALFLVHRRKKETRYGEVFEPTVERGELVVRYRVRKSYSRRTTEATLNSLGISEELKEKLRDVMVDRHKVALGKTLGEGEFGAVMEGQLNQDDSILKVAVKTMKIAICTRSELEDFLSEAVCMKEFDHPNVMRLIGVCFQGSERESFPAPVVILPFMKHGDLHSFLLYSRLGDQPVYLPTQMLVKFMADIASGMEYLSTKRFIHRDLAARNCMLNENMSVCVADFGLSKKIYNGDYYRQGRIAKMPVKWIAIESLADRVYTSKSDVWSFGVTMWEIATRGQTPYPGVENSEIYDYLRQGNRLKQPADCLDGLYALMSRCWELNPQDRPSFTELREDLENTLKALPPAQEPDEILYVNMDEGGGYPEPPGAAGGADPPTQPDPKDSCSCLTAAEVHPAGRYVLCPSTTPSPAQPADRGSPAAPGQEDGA
Chain of Protein cereblon/Tyrosine-protein kinase receptor UFO (Q96SW2 whole entry): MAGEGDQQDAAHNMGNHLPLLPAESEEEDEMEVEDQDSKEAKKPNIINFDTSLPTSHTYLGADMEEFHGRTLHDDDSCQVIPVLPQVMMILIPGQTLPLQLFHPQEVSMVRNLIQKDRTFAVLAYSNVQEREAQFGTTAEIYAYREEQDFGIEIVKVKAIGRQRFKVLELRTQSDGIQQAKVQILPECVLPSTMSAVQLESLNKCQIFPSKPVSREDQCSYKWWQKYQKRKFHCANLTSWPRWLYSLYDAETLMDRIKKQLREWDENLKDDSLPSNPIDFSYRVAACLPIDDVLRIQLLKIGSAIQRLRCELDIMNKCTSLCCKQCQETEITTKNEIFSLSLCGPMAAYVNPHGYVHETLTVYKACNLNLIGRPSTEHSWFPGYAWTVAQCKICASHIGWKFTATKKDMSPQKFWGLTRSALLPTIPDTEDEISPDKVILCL
Chain of von Hippel-Lindau disease tumor suppressor/Tyrosine-protein kinase receptor UFO (P30530 whole entry): as the sequence (P30530 whole entry) above
Chain of von Hippel-Lindau disease tumor suppressor/Tyrosine-protein kinase receptor UFO (P40337 whole entry): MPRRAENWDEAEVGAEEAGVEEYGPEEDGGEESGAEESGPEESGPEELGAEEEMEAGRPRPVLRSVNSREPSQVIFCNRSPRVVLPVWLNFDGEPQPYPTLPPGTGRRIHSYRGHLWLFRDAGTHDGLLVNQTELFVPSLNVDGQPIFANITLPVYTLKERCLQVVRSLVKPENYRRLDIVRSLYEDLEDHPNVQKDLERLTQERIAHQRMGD

A word on the EC50: it is the midpoint of the concentration-response curve. Consider `CCc1ccc2c(c1)c(=O)c(C(=O)Nc1ccc(Oc3ncnc4cc(OCCCCCC(=O)N[C@H](C(=O)N5C[C@H](O)C[C@H]5C(=O)NCc5ccc(-c6scnc6C)cc5)C(C)(C)C)c(OC)cc34)c(F)c1)c(C)n2C`, for which, in test [1], the EC50 was over 10 µM. For orientation: IC50 means the concentration that gives 50% inhibition. With `CCc1ccc2c(c1)c(=O)c(C(=O)Nc1ccc(Oc3ncnc4cc(OCCCCCC(=O)Nc5ccc6c(c5)CN(C5CCC(=O)N(C)C5=O)C6=O)c(OC)cc34)c(F)c1)c(C)n2C` (centres undefined), the IC50 with MDA-MB-436, in the test with MDA-MB-231 and with MDA-MB-453 was over 5 µM in each case. With `CCc1ccc2c(c1)c(=O)c(C(=O)Nc1ccc(Oc3ncnc4cc(OCCCCCC(=O)Nc5cccc6c5C(=O)N(C5CCC(=O)NC5=O)C6)c(OC)cc34)c(F)c1)c(C)n2C` (centres undefined), the EC50 in test [2] was over 10 µM. In the case of `CCc1ccc2c(c1)c(=O)c(C(=O)Nc1ccc(Oc3ncnc4cc(OCCCCCCCCCCCC(=O)N[C@H](C(=O)N5C[C@H](O)C[C@H]5C(=O)NCc5ccc(-c6scnc6C)cc5)C(C)(C)C)c(OC)cc34)c(F)c1)c(C)n2C`, in test [1], the EC50 was over 10 µM. Turning to `CCc1ccc2c(c1)c(=O)c(C(=O)Nc1ccc(Oc3ncnc4cc(OCCCCC(=O)Nc5cccc6c5C(=O)N(C5CCC(=O)NC5=O)C6=O)c(OC)cc34)c(F)c1)c(C)n2C` (centres undefined), the EC50 in test [2] was over 10 µM. For `CCc1ccc2c(c1)c(=O)c(C(=O)Nc1ccc(Oc3ncnc4cc(OCCCC(=O)N[C@H](C(=O)N5C[C@H](O)C[C@H]5C(=O)NCc5ccc(-c6scnc6C)cc5)C(C)(C)C)c(OC)cc34)c(F)c1)c(C)n2C`, in test [1], the EC50 is over 10 µM. Take `CCc1ccc2c(c1)c(=O)c(C(=O)Nc1ccc(Oc3ncnc4cc(OCCCCCC(=O)Nc5ccc6c(c5)C(=O)N(C5CCC(=O)NC5=O)C6=O)c(OC)cc34)c(F)c1)c(C)n2C` (centres undefined): in test [2], the EC50 is 0.04 µM. Still for that read-out and setting: for `CCc1ccc2c(c1)c(=O)c(C(=O)Nc1ccc(Oc3ncnc4cc(OCCCCCC(=O)Nc5ccc6c(c5)C(=O)N(C5CCC(=O)NC5=O)C6)c(OC)cc34)c(F)c1)c(C)n2C` (centres undefined) the value was over 10 µM. Same read-out and setting: for `CCc1ccc2c(c1)c(=O)c(C(=O)Nc1ccc(Oc3ncnc4cc(OCC(=O)Nc5cccc6c5C(=O)N(C5CCC(=O)NC5=O)C6=O)c(OC)cc34)c(F)c1)c(C)n2C` (centres undefined) the value was over 10 µM; for `CCc1ccc2c(c1)c(=O)c(C(=O)Nc1ccc(Oc3ncnc4cc(OCCCCCCCCCCCC(=O)Nc5ccc6c(c5)C(=O)N(C5CCC(=O)NC5=O)C6=O)c(OC)cc34)c(F)c1)c(C)n2C` (centres undefined), over 10 µM. For the compound `CCc1ccc2c(c1)c(=O)c(C(=O)Nc1ccc(Oc3ncnc4cc(OCCCCCCCCCC(=O)Nc5cccc6c5C(=O)N(C5CCC(=O)NC5=O)C6=O)c(OC)cc34)c(F)c1)c(C)n2C` (centres undefined), the EC50 in test [2] was over 10 µM. Consider `CCc1ccc2c(c1)c(=O)c(C(=O)Nc1ccc(Oc3ncnc4cc(OCCCCCC(=O)Nc5cccc6c5C(=O)N(C5CCC(=O)NC5=O)C6=O)c(OC)cc34)c(F)c1)c(C)n2C` (centres undefined), for which the EC50 in test [2] is over 10 µM. With `CCc1ccc2c(c1)c(=O)c(C(=O)Nc1ccc(Oc3ncnc4cc(OCCCCCCCCCCCC(=O)Nc5cccc6c5C(=O)N(C5CCC(=O)NC5=O)C6=O)c(OC)cc34)c(F)c1)c(C)n2C` (centres undefined), the EC50 in test [2] was over 10 µM.

As to `CCc1ccc2c(c1)c(=O)c(C(=O)Nc1ccc(Oc3ncnc4cc(OCC(=O)Nc5ccc6c(c5)C(=O)N(C5CCC(=O)NC5=O)C6=O)c(OC)cc34)c(F)c1)c(C)n2C` (centres undefined), the EC50 in test [2] was over 10 µM. Consider `CCc1ccc2c(c1)c(=O)c(C(=O)Nc1ccc(Oc3ncnc4cc(OCCCCCCCC(=O)N[C@H](C(=O)N5C[C@H](O)C[C@H]5C(=O)NCc5ccc(-c6scnc6C)cc5)C(C)(C)C)c(OC)cc34)c(F)c1)c(C)n2C`, for which the EC50 in test [1] was over 10 µM. Still for that read-out and setting: for `CCc1ccc2c(c1)c(=O)c(C(=O)Nc1ccc(Oc3ncnc4cc(OCC(=O)N[C@H](C(=O)N5C[C@H](O)C[C@H]5C(=O)NCc5ccc(-c6scnc6C)cc5)C(C)(C)C)c(OC)cc34)c(F)c1)c(C)n2C` the value was over 10 µM. On the same count and under the same terms, for `CCc1ccc2c(c1)c(=O)c(C(=O)Nc1ccc(Oc3ncnc4cc(OCCCCCCCCCC(=O)N[C@H](C(=O)N5C[C@H](O)C[C@H]5C(=O)NCc5ccc(-c6scnc6C)cc5)C(C)(C)C)c(OC)cc34)c(F)c1)c(C)n2C` the value was over 10 µM. In the case of `CCc1ccc2c(c1)c(=O)c(C(=O)Nc1ccc(Oc3ncnc4cc(OCCCCCC(=O)Nc5cccc6c5CN(C5CCC(=O)NC5=O)C6=O)c(OC)cc34)c(F)c1)c(C)n2C` (centres undefined), in test [2], the EC50 was over 10 µM. The same measure, in the same setting: as for `CCc1ccc2c(c1)c(=O)c(C(=O)Nc1ccc(Oc3ncnc4cc(OCCCCCCCC(=O)Nc5ccc6c(c5)C(=O)N(C5CCC(=O)NC5=O)C6=O)c(OC)cc34)c(F)c1)c(C)n2C` (centres undefined), the figure is 0.108 µM; as for `CCc1ccc2c(c1)c(=O)c(C(=O)Nc1ccc(Oc3ncnc4cc(OCCCCC(=O)Nc5ccc6c(c5)C(=O)N(C5CCC(=O)NC5=O)C6=O)c(OC)cc34)c(F)c1)c(C)n2C` (centres undefined), over 10 µM; as for `CCc1ccc2c(c1)c(=O)c(C(=O)Nc1ccc(Oc3ncnc4cc(OCCCCCCCCCC(=O)Nc5ccc6c(c5)C(=O)N(C5CCC(=O)NC5=O)C6=O)c(OC)cc34)c(F)c1)c(C)n2C` (centres undefined), over 10 µM.

For the compound `CCc1ccc2c(c1)c(=O)c(C(=O)Nc1ccc(Oc3ncnc4cc(OCCCCCCCC(=O)Nc5cccc6c5C(=O)N(C5CCC(=O)NC5=O)C6=O)c(OC)cc34)c(F)c1)c(C)n2C` (centres undefined), the EC50 in test [2] is over 10 µM.
